EC50 data for one compound are collected here from ChEMBL document CHEMBL5030570, “Factor XI Activation Inhibitors for Treating Thrombosis, Embolisms, Hypercoagulability, and Fibrotic Changes” (ACS Med Chem Lett, 2022).

The target of this experiment is Coagulation factor XI (Homo sapiens, UniProt P03951). Nature of the experiment: Inhibition of human coagulation factor 11 assessed as inhibition of factor 12a mediated activation using z-GPR-AFC measured after 60 mins by fluorescence assay.
Sequence of Coagulation factor XI (P03951 19-387 limits assumed): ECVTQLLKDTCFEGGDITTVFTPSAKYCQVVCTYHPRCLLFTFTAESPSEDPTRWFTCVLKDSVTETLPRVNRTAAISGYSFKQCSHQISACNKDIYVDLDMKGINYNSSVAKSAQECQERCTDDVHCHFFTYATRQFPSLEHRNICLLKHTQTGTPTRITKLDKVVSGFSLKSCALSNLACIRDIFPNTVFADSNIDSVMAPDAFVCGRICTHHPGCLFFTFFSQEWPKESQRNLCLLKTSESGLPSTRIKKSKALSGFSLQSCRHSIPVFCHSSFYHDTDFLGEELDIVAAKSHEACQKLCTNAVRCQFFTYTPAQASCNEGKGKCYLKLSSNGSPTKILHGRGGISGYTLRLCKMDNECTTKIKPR
Sequence of Coagulation factor XI (P03951 388-625 limits assumed): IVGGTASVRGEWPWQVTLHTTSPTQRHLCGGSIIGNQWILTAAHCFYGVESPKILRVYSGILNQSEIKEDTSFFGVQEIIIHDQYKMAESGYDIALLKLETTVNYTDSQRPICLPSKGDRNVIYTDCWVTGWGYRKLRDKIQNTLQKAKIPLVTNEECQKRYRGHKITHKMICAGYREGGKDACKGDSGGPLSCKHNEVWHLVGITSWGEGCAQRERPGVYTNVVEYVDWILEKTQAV

As a reminder, the EC50 is the concentration at which the effect is half-maximal. `Cc1cnn(C2CCN(C(=O)c3cc(C(=O)N4CCCCC4)c4cc(OCc5ncc(C(F)(F)F)cc5Cl)ncc4c3)CC2)c1`: the EC50 came out at 3.8 nM.
